Assay results from ChEMBL document CHEMBL1144803, “Nardosinanols A-I and lemnafricanol, sesquiterpenes from several soft corals, Lemnalia sp., Paralemnalia clavata, Lemnalia africana, and Rhytisma fulvum fulvum” (J Nat Prod, 2008).

Experiment: Toxicity in brine shrimp
Assay type: organism-based
Conditions: artemia, in vivo

For CC(=O)O[C@H]1C[C@H](O)[C@@]23C(=O)[C@@H](C)[C@@H]1[C@]2(C)[C@@H](C)CC[C@@H]3O [LEMNAFRICANOL], which LC50 is on record?
The LC50 was 320 nM.

For C[C@@H](C=O)[C@H]1C(=O)CCC2=C[C@@H](O)C[C@H](C)[C@]21C [NARDOSINANOL C], which LC50 is on record?
Its LC50 is 4000 nM.

For CC(=O)[C@H]1C[C@H](O)C2=CCC[C@H](C)[C@@]2(C)[C@H]1C(C)=O [NARDOSINANOL G], which LC50 is on record?
Its LC50 is 350 nM.
